From patent publication US20260355080A1, “COSMETIC COMPOSITION FOR PREVENTING OR AMELIORATING SKIN DISEASES, COMPRISING MORUS ALBA-DERIVED COMPOUND AS ACTIVE INGREDIENT” (DONGGUK UNIVERSITY INDUSTRY-ACADEMIC COOPERATION FOUNDATION, priority 2022, published 2026)

How the values were obtained:
Type in all cases: cell-based
[1] = tested on: tyrosinase; p16 (Ink4a); test: Combined analysis of skin whitening (tyrosinase expression, co-cultured cell models) and anti-aging (p16 expression, keratinocytes) effects; conditions: 16 candidate materials tested, 48 hours
Protocol: (§1) Keratinocytes were seeded in a culture container at 2×10^5/ml, after 24 hours, pCMV plasmids containing one of three genes [arginase 2 (ARG2, NCBI Gene ID: 384), cadherin 11 (CDH11, NCBI Gene: 1009), and guanine deaminase (GDA, NCBI Gene: 9615)] were transfected into cells using Lipofectamine 2000 to induce overexpression, and after 4 hours of culture with Dulbecco's Modified Essential Medium (DMEM) culture medium without supplements, 0.5×10^5/ml melanocytes were mixed with the keratinocyte culture medium containing supplements and co-cultured in the same culture container. After 24 hours, the keratinocyte culture medium without supplements was replaced, and after 5 hours, the normal melanocytes were treated with the 16 candidate materials for 48 hours. […]
(§2) In order to identify the skin whitening and anti-aging effects of 16 candidate materials in Example 1-2, for the skin whitening effect, each of the three types of cell models constructed in the Example 2-1 was treated with the 16 candidate materials at concentrations at which no cytotoxicity is shown in the melanocytes identified in Example 1-1 for 48 hours, and then Western blot was performed to measure the expression of tyrosinase. The experiment was repeated 4 times, and P<0.05 was determined to be significant. […] The experiment was repeated 4 times, and P<0.05 was determined to be significant.

[2] = tested on: tyrosinase; test: Western blot of tyrosinase expression in control gene overexpressing (pCMV) keratinocyte/melanocyte co-cultured cell model; conditions: control gene overexpressing co-cultured cell model (pCMV, of the CDH11 experiment), 10 μM, 48 hours; FIG. 3
Protocol: as §1, §2

[3] = MTT cytotoxicity assay in melanocytes; conditions: human, tested at 10, 50, and 100 μM, FIG. 1, read-out: treatment concentration up to which no cytotoxicity was shown
Protocol: (§3) Melanocytes used were isolated from normal adult skin tissues obtained through repeated cesarean section and circumcision. Dispase 2.4U (#295 825; Roche, Mannheim, Germany) was treated for 1 hour to separate the epidermis, and 0.05% trypsin was treated for 10 minutes to isolate melanocytes. Afterwards, the cells were suspended in Medium 254, and the bovine pituitary extract (BPE), fetal bovine serum (FBS), hydrocortisone, basic fibroblast growth factor (bFGF), bovine transferrin (BT), heparin, and phorbol 12-myristate13-acetate (PMA, Invitrogen) were added and cultured. The cells that had undergone the 3rd~5th passage culture were used in the experiment.
In order to identify cytotoxicity of the 136 candidate materials, MTT assays were performed. Melanocytes were treated with the candidate materials by concentration (10, 50, and 100 μM) for 48 hours, and the cell viability was measured to determine the concentration range at which no cytotoxicity of each candidate material is observed.

[4] = tested on: tyrosinase; test: Western blot of intracellular tyrosinase expression in melanocytes (skin whitening effect); conditions: 10 μM M55 (other candidates at non-cytotoxic concentration), 48 hours, FIG. 2
Protocol: as §3
In order to identify the skin whitening effect of the 136 candidate materials, Western blot was performed. After treating melanocytes with the candidate material at a concentration at which no cytotoxicity was shown in the melanocytes identified in Example 1-2 for 48 hours, intracellular tyrosinase expression was measured. The experiment was repeated 4 times or more.

[5] = tested on: p16 (Ink4a); test: Western blot of p16 (Ink4a) expression in keratinocytes (anti-aging effect); conditions: 10 μM, 48 hours, P<0.05 significant, FIG. 4
Protocol: Keratinocytes used were isolated from normal adult skin tissues obtained through repeated cesarean section and circumcision. The cells were dispensed into EpiLife Medium, and bovine pituitary extract (BPE), bovine insulin (BI), hydrocortisone, human epidermal growth factor (EGF), and bovine transferrin (BT) were added and cultured. The cells that had undergone the 3rd~5th passage culture were used in the experiment. The pituitary extract, bovine insulin, hydrocortisone, human epidermal growth factor, and bovine transferrin were used by purchasing from Invitrogen.
In order to identify the skin whitening and anti-aging effects of 16 candidate materials in Example 1-2, for the skin whitening effect, each of the three types of cell models constructed in the Example 2-1 was treated with the 16 candidate materials at concentrations at which no cytotoxicity is shown in the melanocytes identified in Example 1-1 for 48 hours, and then Western blot was performed to measure the expression of tyrosinase. The experiment was repeated 4 times, and P<0.05 was determined to be significant. In addition, for analysis on the anti-aging effect, the keratinocytes were treated with the above 16 candidate materials for 48 hours each, and then Western blot was performed to measure the expression of p16 (Ink4a). The experiment was repeated 4 times, and P<0.05 was determined to be significant.

[6] = tested on: tyrosinase; test: Western blot of tyrosinase expression in GDA overexpressing keratinocyte/melanocyte co-cultured cell model; conditions: 10 μM, 48 hours, P<0.05 significant, FIG. 3
Protocol: as §1, §2

[7] = tested on: tyrosinase; test: Western blot of tyrosinase expression in CDH11 overexpressing keratinocyte/melanocyte co-cultured cell model; conditions: 10 μM, 48 hours, FIG. 3
Protocol: as §1, §2

[8] = tested on: tyrosinase; test: Western blot of tyrosinase expression in ARG2 overexpressing keratinocyte/melanocyte co-cultured cell model; conditions: 10 μM, 48 hours, P<0.05 significant, FIG. 3
Protocol: as §1, §2

In the case of `COC(=O)C[C@@H](O)CC(=O)O` [M55], the “skin whitening and anti-aging effects shown together” value [1] is reported as “skin whitening and anti-aging effects were shown together”, the “tyrosinase expression compared to the control group” value [2] is reported as “increased” and the MNTC at 48 h [3] is reported as ≥ 10 µM. For the same molecule, the “tyrosinase expression compared to the control group” value [4] was “significantly reduced”, the “p16 (Ink4a) expression compared to the control group” value [5] was “significantly reduced” and the “tyrosinase expression compared to the control group” value [6] was “significant decrease”. The “tyrosinase expression compared to the control group” value [7] was “reduced” and the “tyrosinase expression compared to the control group” value [8] was “significant decrease”.
